Assay results reported in patent US7998952B2, “Thiolactams and uses thereof” (Millennium Pharmaceuticals, Inc., priority 2008, dated 2011).

Target: T1, recombinant human PLK1[2-369]T210D (Homo sapiens, UniProt P53350, T210D)
T1 construct: recombinant human PLK1[2-369]T210D; Smt (SUMO) fusion partner (N, cleaved yes); host or cells: E. coli
Assay: PLK1 DELFIA Kinase Assay
Assay type: biochemical
Settings: 50 μM ATP, 2 μM peptide substrate, 0.3 nM enzyme, 90 minutes at room temperature
Outline: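 E. coli-expressed human PLK1, cleaved from an Smt fusion after Ni2+ purification, is reacted with or without inhibitor for 90 minutes at room temperature and stopped with EDTA. Product is captured on Neutravidin plates and quantified by europium DELFIA time-resolved fluorescence.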

T1 sequence (P53350 2-369 T210D): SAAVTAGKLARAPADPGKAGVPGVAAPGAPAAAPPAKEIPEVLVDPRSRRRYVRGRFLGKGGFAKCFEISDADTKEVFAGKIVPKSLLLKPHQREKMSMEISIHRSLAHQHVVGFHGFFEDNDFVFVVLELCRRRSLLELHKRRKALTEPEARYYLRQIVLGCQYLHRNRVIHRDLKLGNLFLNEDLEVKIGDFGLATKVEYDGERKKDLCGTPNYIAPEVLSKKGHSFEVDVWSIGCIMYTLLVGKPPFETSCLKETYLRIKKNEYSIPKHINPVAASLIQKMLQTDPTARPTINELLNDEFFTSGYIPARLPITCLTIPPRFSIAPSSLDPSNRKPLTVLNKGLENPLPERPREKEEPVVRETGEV

SMILES	IC50 [nM]
Cc1nc(NC2CCNCC2)ccc1Nc1ncc2c(n1)-c1ccc(Cl)cc1NC(=S)C2 [Compound I-85, 9-chloro-2-{[2-methyl-6-(piperidin-4-ylamino)pyridin-3-yl]amino}-5,7-dihydro-6H-pyrimido[5,4-d][1]benzazepine-6-thione]	< 5
Cc1nc2c(cc1Nc1ncc3c(n1)-c1ccc(C(F)(F)F)cc1NC(=S)C3)CN(C)CC2 [Compound I-86, 2-[(2,6-dimethyl-5,6,7,8-tetrahydro-1,6-naphthyridin-3-yl)amino]-9-(trifluoromethyl)-5,7-dihydro-6H-pyrimido[5,4-d][1]benzazepine-6-thione]	< 5
Cc1ncc(CCN2CCCCC2)cc1Nc1ncc2c(n1)-c1ccc(C(F)(F)F)cc1NC(=S)C2 [Compound I-87, 2-{[2-methyl-5-(2-piperidin-1-ylethyl)pyridin-3-yl]amino}-9-(trifluoromethyl)-5,7-dihydro-6H-pyrimido[5,4-d][1]benzazepine-6-thione]	< 5
Cc1ncc(CCCN)cc1Nc1ncc2c(n1)-c1ccc(C(F)(F)F)cc1NC(=S)C2 [Compound I-90, 2-{[5-(3-aminopropyl)-2-methylpyridin-3-yl]amino}-9-(trifluoromethyl)-5,7-dihydro-6H-pyrimido[5,4-d][1]benzazepine-6-thione]	< 5
Cc1nc(NC2CCN(C)CC2)ccc1Nc1ncc2c(n1)-c1ccc(C(F)(F)F)cc1NC(=S)C2 [Compound I-92, 2-({2-methyl-6-[(1-methylpiperidin-4-yl)amino]pyridin-3-yl}amino)-9-(trifluoromethyl)-5,7-dihydro-6H-pyrimido[5,4-d][1]benzazepine-6-thione]	< 5
Cc1nc(N(C)C2CCN(C)C2)ccc1Nc1ncc2c(n1)-c1ccc(C(F)(F)F)cc1NC(=S)C2 (stereo not drawn) [Compound I-95, 2-({2-methyl-6-[methy(1-methylpyrrolidin-3-yl)amino]pyridin-3-yl}amino)-9-(trifluoromethyl)-5,7-dihydro-6H-pyrimido[5,4-d][1]benzazepine-6-thione]	< 5
Cc1nc2c(cc1Nc1ncc3c(n1)-c1ccc(Cl)cc1NC(=S)C3)CC(N(C)C)CC2 (stereo not drawn) [Compound I-96, 9-chloro-2-{[6-(dimethylamino)-2-methyl-5,6,7,8-tetrahydroquinolin-3-yl]amino}-5,7-dihydro-6H-pyrimido[5,4-d][1]benzazepine-6-thione]	< 5

Second part, the compound after the results:

IC50 [nM]	SMILES
< 5	Cc1nc(N(C)CCCN(C)C)ccc1Nc1ncc2c(n1)-c1ccc(C(F)(F)F)cc1NC(=S)C2 [Compound I-88, 2-({6-[[3-(dimethylamino)propyl](methyl)amino]-2-methylpyridin-3-yl}amino)-9-(trifluoromethyl)-5,7-dihydro-6H-pyrimido[5,4-d][1]benzazepine-6-thione]
< 5	Cc1ncc(CCCCN(C)C)cc1Nc1ncc2c(n1)-c1ccc(Cl)cc1NC(=S)C2 [Compound I-89, 9-chloro-2-({5-[4-(dimethylamino)butyl]-2-methylpyridin-3-yl}amino)-5,7-dihydro-6H-pyrimido[5,4-d][1]benzazepine-6-thione]
5 to 25	Cc1ncccc1Nc1ncc2c(n1)-c1cc(CCCN(C)C)c(Cl)cc1NC(=S)C2 [Compound I-93, 9-chloro-10-[3-(dimethylamino)propyl]-2-[(2-methylpyridin-3-yl)amino]-5,7-dihydro-6H-pyrimido[5,4-d][1]benzazepine-6-thione]
< 5	Cc1ncc(Nc2ncc3c(n2)-c2ccc(Cl)cc2NC(=S)C3)cc1CCCN(C)C [Compound I-94, 9-chloro-2-({5-[3-(dimethylamino)propyl]-6-methylpyridin-3-yl}amino)-5,7-dihydro-6H-pyrimido[5,4-d][1]benzazepine-6-thione]
5 to 25	Cc1nc(NCCN(C)C)ccc1Nc1ncc2c(n1)-c1ccc(Cl)cc1NC(=S)C2 [Compound I-97, 9-chloro-2-[(6-{[2-(dimethylamino)-ethyl]amino}2-methylpyridin-3-yl)amino]-5,7-dihydro-6H-pyrimido[5,4-d][1]benzazepine-6-thione]
